Laboratory results published in US9575064B2, “Methods relating to testing for lysosomal storage disorders” (PerkinElmer Health Sciences, Inc., priority 2014, dated 2017).

Key:
[1] = cited from earlier work
[2] = target: T1, galactocerebrosidase (GALC) (Homo sapiens, UniProt P54803); conditions: Zhang et al; Li et al; cited from earlier work
T1 sequence (P54803 43-685): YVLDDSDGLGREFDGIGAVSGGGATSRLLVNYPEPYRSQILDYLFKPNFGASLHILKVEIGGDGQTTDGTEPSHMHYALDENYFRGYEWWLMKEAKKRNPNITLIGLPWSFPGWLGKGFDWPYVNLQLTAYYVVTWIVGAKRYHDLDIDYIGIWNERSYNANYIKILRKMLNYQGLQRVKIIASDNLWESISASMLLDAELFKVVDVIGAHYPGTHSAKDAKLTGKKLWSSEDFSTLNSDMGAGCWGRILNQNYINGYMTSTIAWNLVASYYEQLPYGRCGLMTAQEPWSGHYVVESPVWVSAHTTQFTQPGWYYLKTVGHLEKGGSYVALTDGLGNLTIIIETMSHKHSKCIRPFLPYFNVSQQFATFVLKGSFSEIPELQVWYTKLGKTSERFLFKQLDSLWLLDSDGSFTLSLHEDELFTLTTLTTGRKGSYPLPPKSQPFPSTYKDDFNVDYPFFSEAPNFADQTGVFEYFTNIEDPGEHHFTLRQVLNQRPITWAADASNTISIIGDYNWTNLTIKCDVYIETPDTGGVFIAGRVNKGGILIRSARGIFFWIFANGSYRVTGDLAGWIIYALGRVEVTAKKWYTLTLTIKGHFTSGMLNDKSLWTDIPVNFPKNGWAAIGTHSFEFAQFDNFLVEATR

acid α-glucosidase (GAA) = target: T2, acid α-glucosidase (GAA) (Homo sapiens, UniProt P10253); assay: 6-plex DBS enzyme activity assay (FIA-MS/MS) with and without sodium oleate: GAA; format: biochemical
T2 construct: from tissue; host or cells: human dried blood spots (CDC control DBS: pooled cord blood, leukocyte-reduced adult blood)

[3] = target: T3, acid sphingomylenase (ASM) (Homo sapiens, UniProt P17405); assay: 6-plex DBS enzyme activity assay (FIA-MS/MS) with and without sodium oleate: ASM; format: biochemical
T3 construct: from tissue; host or cells: human dried blood spots (CDC control DBS: pooled cord blood, leukocyte-reduced adult blood)
T3 sequence (P17405 47-631): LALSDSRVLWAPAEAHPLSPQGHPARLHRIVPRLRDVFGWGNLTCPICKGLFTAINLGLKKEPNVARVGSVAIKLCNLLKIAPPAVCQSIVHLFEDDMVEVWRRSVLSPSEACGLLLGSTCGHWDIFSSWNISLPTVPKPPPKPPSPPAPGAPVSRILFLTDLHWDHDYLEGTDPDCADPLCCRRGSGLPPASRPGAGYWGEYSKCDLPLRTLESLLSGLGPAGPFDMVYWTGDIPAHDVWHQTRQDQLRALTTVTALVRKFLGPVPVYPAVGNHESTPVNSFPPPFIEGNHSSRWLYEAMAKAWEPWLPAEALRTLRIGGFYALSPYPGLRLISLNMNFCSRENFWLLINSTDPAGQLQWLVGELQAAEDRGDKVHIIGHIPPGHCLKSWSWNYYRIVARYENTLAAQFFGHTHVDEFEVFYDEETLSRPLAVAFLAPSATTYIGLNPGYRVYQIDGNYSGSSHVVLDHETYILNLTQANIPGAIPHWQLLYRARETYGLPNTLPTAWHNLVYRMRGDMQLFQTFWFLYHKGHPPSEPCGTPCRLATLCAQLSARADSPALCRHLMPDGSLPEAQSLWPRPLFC

[4] = target: T4, acid α-galactosidase A (GLA) (Homo sapiens, UniProt P06280); assay: 6-plex DBS enzyme activity assay (FIA-MS/MS) with and without sodium oleate: GLA; format: biochemical
T4 construct: from tissue; host or cells: human dried blood spots (CDC control DBS: pooled cord blood, leukocyte-reduced adult blood)
T4 sequence (P06280 32-429): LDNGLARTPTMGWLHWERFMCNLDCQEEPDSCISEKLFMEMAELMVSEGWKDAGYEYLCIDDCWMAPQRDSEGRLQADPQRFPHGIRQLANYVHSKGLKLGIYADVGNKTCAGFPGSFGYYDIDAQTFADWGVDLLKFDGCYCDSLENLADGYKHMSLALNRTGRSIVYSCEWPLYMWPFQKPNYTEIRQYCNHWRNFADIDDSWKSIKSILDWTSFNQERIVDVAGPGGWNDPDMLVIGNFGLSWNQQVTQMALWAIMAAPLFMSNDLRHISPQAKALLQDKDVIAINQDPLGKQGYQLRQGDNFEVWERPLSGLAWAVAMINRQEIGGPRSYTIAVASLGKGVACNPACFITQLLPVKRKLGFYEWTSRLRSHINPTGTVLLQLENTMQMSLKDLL

[5] = target: T5, acid β-glucocerebrosidase (ABG) (Homo sapiens, UniProt P04062); assay: 6-plex DBS enzyme activity assay (FIA-MS/MS) with and without sodium oleate: ABG; format: biochemical
T5 construct: from tissue; host or cells: human dried blood spots (CDC control DBS: pooled cord blood, leukocyte-reduced adult blood)
T5 sequence (P04062 40-536): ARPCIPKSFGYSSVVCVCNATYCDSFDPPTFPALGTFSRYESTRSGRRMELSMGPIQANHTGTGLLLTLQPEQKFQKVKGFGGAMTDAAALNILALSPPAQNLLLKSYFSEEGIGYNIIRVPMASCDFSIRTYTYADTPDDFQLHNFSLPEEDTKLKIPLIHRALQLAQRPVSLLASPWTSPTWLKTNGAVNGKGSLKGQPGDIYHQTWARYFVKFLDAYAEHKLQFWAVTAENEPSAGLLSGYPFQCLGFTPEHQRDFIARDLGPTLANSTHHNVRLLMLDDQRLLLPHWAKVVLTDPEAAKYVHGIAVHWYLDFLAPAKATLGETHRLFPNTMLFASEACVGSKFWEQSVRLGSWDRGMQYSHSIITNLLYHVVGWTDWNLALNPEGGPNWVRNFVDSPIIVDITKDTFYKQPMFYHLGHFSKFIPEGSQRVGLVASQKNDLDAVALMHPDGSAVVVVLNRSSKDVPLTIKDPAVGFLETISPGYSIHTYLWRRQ

[6] = target: T1, galactocerebrosidase (GALC); assay: 6-plex DBS enzyme activity assay (FIA-MS/MS) with and without sodium oleate: GALC; format: biochemical; design: from tissue; host or cells: human dried blood spots (CDC control DBS: pooled cord blood, leukocyte-reduced adult blood)
α-L-iduronidase (IDUA) = target: T6, α-L-iduronidase (IDUA) (Homo sapiens, UniProt P35475); assay: 6-plex DBS enzyme activity assay (FIA-MS/MS) with and without sodium oleate: IDUA; format: biochemical
T6 construct: from tissue; host or cells: human dried blood spots (CDC control DBS: pooled cord blood, leukocyte-reduced adult blood)
T6 sequence (P35475 28-653): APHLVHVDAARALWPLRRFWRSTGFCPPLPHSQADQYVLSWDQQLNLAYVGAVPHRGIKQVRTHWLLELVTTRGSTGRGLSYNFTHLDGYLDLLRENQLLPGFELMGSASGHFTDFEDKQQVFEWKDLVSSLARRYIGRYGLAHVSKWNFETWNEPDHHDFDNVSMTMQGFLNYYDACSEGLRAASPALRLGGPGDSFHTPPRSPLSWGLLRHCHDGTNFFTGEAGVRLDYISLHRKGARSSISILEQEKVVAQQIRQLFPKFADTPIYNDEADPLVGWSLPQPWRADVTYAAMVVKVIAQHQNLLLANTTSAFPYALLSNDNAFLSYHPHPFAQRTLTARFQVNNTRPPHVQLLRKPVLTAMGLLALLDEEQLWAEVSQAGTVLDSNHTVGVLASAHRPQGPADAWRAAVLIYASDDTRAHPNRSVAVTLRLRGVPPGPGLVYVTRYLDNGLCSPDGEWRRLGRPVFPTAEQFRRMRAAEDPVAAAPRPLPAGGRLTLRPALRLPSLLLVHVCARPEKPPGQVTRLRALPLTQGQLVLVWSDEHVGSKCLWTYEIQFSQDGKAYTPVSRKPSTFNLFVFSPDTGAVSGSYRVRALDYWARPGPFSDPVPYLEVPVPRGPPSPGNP

[7] = CDC High Control DBS, with sodium oleate
[8] = CDC High Control DBS, with vs without sodium oleate
[9] = CDC Low Control DBS, with sodium oleate
[10] = CDC Low Control DBS, with vs without sodium oleate
[11] = CDC Medium Control DBS, with sodium oleate
[12] = CDC Medium Control DBS, with vs without sodium oleate
[13] = Med/Low Control DBS ratio, with vs without sodium oleate
[14] = addition of sodium oleate, stated for the ceramides
[15] = two assays differing only by addition or lack of sodium oleate

CCCCCCCC/C=C\CCCCCCCC(=O)O [oleic acid]
solubility in aqueous buffers [1]: very difficult to dissolve | effect on GALC enzyme [2]: enhancer

CCCCCCCC/C=C\CCCCCCCC(=O)[O-].[Na+] [sodium oleate]
Enzyme Activity GAA (acid α-glucosidase (GAA); [7]): 13.48 µmol/L/h | Sodium oleate gain GAA (acid α-glucosidase (GAA); [8]): 110% | Enzyme Activity GAA (acid α-glucosidase (GAA); [9]): 0.99 µmol/L/h | Sodium oleate gain GAA (acid α-glucosidase (GAA); [10]): 105% | Enzyme Activity GAA (acid α-glucosidase (GAA); [11]): 7.08 µmol/L/h | Sodium oleate gain GAA (acid α-glucosidase (GAA); [12]): 115% | Sodium oleate gain of Med/Low ratio GAA (acid α-glucosidase (GAA); [13]): 115% | CDC Med/Low Control DBS activity ratio GAA (acid α-glucosidase (GAA); with sodium oleate): 7.2 | Enzyme Activity ASM [3, 7]: 2.54 µmol/L/h | Sodium oleate gain ASM [3, 8]: 117% | Enzyme Activity ASM [3, 9]: 0.16 µmol/L/h | Sodium oleate gain ASM [3, 10]: 95% | Enzyme Activity ASM [3, 11]: 1.29 µmol/L/h | Sodium oleate gain ASM [3, 12]: 122% | Sodium oleate gain of Med/Low ratio ASM [3, 13]: 136% | widening of the gap between Low Control DBS and Medium Control DBS, ASM [3, 14]: approximately 25% | enzyme activity ASM when sodium oleate was present [3, 15]: improved | CDC Med/Low Control DBS activity ratio ASM ([3]; with sodium oleate): 8.0 | Enzyme Activity GLA [4, 7]: 13.15 µmol/L/h | Sodium oleate gain GLA [4, 8]: 104% | Enzyme Activity GLA [4, 9]: 1.00 µmol/L/h | Sodium oleate gain GLA [4, 10]: 95% | Enzyme Activity GLA [4, 11]: 6.57 µmol/L/h | Sodium oleate gain GLA [4, 12]: 106% | Sodium oleate gain of Med/Low ratio GLA [4, 13]: 114% | CDC Med/Low Control DBS activity ratio GLA ([4]; with sodium oleate): 6.5 | Enzyme Activity ABG [5, 7]: 11.46 µmol/L/h | Sodium oleate gain ABG [5, 8]: 162% | Enzyme Activity ABG [5, 9]: 0.95 µmol/L/h | Sodium oleate gain ABG [5, 10]: 159% | Enzyme Activity ABG [5, 11]: 5.44 µmol/L/h | Sodium oleate gain ABG [5, 12]: 175% | Sodium oleate gain of Med/Low ratio ABG [5, 13]: 120% | widening of the gap between Low Control DBS and Medium Control DBS, ABG [5, 14]: approximately 25% | enzyme activity ABG when sodium oleate was present [5, 15]: improved | CDC Med/Low Control DBS activity ratio ABG ([5]; with sodium oleate): 5.8 | Enzyme Activity GALC [6, 7]: 6.72 µmol/L/h | Sodium oleate gain GALC [6, 8]: 126% | Enzyme Activity GALC [6, 9]: 0.45 µmol/L/h | Sodium oleate gain GALC [6, 10]: 118% | Enzyme Activity GALC [6, 11]: 3.22 µmol/L/h | Sodium oleate gain GALC [6, 12]: 133% | Sodium oleate gain of Med/Low ratio GALC [6, 13]: 117% | widening of the gap between Low Control DBS and Medium Control DBS, GALC [6, 14]: approximately 25% | enzyme activity GALC when sodium oleate was present [6, 15]: improved | CDC Med/Low Control DBS activity ratio GALC ([6]; with sodium oleate): 7.1 | Enzyme Activity IDUA (α-L-iduronidase (IDUA); [7]): 11.95 µmol/L/h | Sodium oleate gain IDUA (α-L-iduronidase (IDUA); [8]): 111% | Enzyme Activity IDUA (α-L-iduronidase (IDUA); [9]): 0.72 µmol/L/h | Sodium oleate gain IDUA (α-L-iduronidase (IDUA); [10]): 107% | Enzyme Activity IDUA (α-L-iduronidase (IDUA); [11]): 5.86 µmol/L/h | Sodium oleate gain IDUA (α-L-iduronidase (IDUA); [12]): 116% | Sodium oleate gain of Med/Low ratio IDUA (α-L-iduronidase (IDUA); [13]): 114% | CDC Med/Low Control DBS activity ratio IDUA (α-L-iduronidase (IDUA); with sodium oleate): 8.1
